Test results published in patent publication US8084018B2, “Methods for imaging dopamine transporter level” (Alseres Pharmaceuticals, Inc., priority 2007, dated 2011).
Where “and” joins values, the source holds several entries; their conditions need not be identical. Equal values may be shown once.

Target: T1, dopamine transporter (Homo sapiens, UniProt Q01959)
T1 construct: dynamic SPECT in Parkinson's subjects and similarly aged healthy control subjects; from tissue; host or cells: striatum (caudate and putamen) of living subjects, imaged in vivo
Assay: 123I Altropane dynamic SPECT imaging of striatal dopamine transporter in Parkinson's disease and healthy control subjects
Format: in vivo
Conditions: for Mean % test/retest difference: 15 PD subjects; for Total striatal binding ratio, Ratio (3-6): individual PD scans (paired test/retest), mean of scans 3-6, about 30 min from about 15 min post injection; for Peak Striatal:Occipital Ratio (peak SBR): single scan with highest uptake, 8 mCi i.v.
Source text: The following example summarizes single photon emission computed tomographic (SPECT) image acquisition, analysis methods and results for Parkinson's disease research participants and healthy controls participating in an ^123I Altropane SPECT imaging study. The experiment is an open label study evaluating time-activity curves and striatal dopamine transporter occupancy over the first hour post injection of ^123I Altropane using temporally well-resolved dynamic SPECT in Parkinson's subjects and similarly aged healthy control subjects. In addition, for the PD subjects, a second injection and scan is performed on each subject on a separate test days to evaluate the test/retest reproducibility data for both visual and quantitative analyses.
Fifteen idiopathic Parkinson's disease subjects are recruited through local advertising and word-of-mouth for enrollment in the study. Imaging is performed at Molecular NeuroImaging, LLC in New Haven, Conn., USA. ^123I Altropane is studied under the auspices of a physician-sponsored IND # 76,024, Dr. J. Seibyl physician sponsor using test article provided by MDS Nordion, Inc (Vancouver, BC, Canada). All subjects are provided informed consent prior to any study procedures. All fifteen subjects completed two separate injection and SPECT scan sessions with approximately 296 mBq (8 mCi) of ^123I Altropane. Subjects undergo motor ratings using the Unified Parkinson's Disease Rating Scale (UPDRS) following overnight period without anti-Parkinson medication administered by a movement disorder specialist. No PD subjects are terminated prior to achieving the study endpoint.
Twelve healthy control subjects are recruited for participation in a single scan session with ^123I Altropane using the identical SPECT image acquisition protocol as the PD subjects. Healthy subjects are evaluated by a movement disorder specialist to confirm the absence of neurologic illness.
SPECT scans are acquired for 60 minutes following the intravenous injection with 296 mBq (8.0 mCi) of ^123I Altropane. A series of dynamic SPECT scans are obtained as five scans at 6 minutes per acquisition followed by three scans at 10 minutes per acquisition. The subject remain in the camera for the duration of the acquisition. Each SPECT study is acquired on a Philips PRISM 3000XP triple-headed SPECT camera (Cleveland, Ohio, USA) fitted with fan-beam collimators. Each head rotates 360 degrees, sampling every 3 degrees for a total of 120 raw projection images per head. Projection data were collected in a 128×128 matrix within a symmetric energy window centered at 159 kEv (+/−10%).
Data are re-constructed using filtered back projection and a simple ramp filter followed by a post hoc (3-D) standardized low pass filter. Attenuation correction was performed applying a Chang 0 correction and a mu of 0.11 cm^−1 using a standard or custom automated software package. Regions of interest (ROIs) are placed in the 3-head data with individual ROI sampling of the left and right caudate and putamen and an occipital background region. The ROIs were then applied to all images in the injection session (total of 24=8 time points×3 head conditions (1, 1&2, 1&2&3). To check for head movement within each scan session, five external skin fiducial markers containing 1 μCi of ^123I were place along the canthomeatal line (2 right side, 3 left side) prior to each SPECT scan. Total counts within the ROI, total volume, and count density (counts/voxel) were extracted from each scan and logged in a data spreadsheet for determination of striatal uptake ratios (SBR) defined as the density of counts (counts per voxel per minute) in the striatal region divided by the density of counts in the occipital background region. The mean striatal SBR scores were calculated as the mean of the left and right caudate and putamen SBR scores. Since sampling in striatal subregions used the identical size ROI, there was equal contribution from left and right caudate and putamen to the mean SBR. […]

T1 sequence (Q01959 whole entry): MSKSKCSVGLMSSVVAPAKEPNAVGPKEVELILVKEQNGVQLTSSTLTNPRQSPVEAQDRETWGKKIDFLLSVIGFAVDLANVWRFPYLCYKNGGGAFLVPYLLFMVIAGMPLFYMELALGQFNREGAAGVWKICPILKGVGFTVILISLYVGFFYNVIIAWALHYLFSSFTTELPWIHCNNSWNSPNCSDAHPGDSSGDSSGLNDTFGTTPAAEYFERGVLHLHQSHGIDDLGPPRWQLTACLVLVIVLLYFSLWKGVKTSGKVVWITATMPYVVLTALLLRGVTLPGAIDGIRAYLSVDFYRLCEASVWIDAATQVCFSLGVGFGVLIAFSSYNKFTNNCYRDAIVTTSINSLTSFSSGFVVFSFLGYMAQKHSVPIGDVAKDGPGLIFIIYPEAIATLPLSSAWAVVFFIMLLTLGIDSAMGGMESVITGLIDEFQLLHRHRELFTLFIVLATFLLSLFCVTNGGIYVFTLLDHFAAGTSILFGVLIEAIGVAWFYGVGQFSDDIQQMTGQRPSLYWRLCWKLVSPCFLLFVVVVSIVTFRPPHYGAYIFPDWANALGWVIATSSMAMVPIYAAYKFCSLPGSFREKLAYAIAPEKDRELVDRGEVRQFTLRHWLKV

Structure (SMILES): COC(=O)C1C(c2ccc(F)cc2)CC2CCC1N2C/C=C/I (stereo not drawn) [123I Altropane, 2β-carbomethoxy-3β-(4′-flurophenyl)-N-(3-iodo-E-allyl) nortropane]
- Mean % test/retest difference (1 head): 4.94%
- Mean % test/retest difference (2 heads): 5.11%
- Mean % test/retest difference (3 heads): 5.14%
- time post injection of relative stability of binding ratios (a PD and a control subject, FIG. 3): about 15 minutes
- time post injection by which washout rates from striatum and occipital background are similar (stable striatal binding ratio) (all subjects): 20 to 30 min
- time of peak striatal count densities post-injection (controls and PD subjects, bolus injection): 10 min
- Total striatal binding ratio, Ratio (3-6) (1 head): 1.29 (4×) and 1.23 and 1.30 (2×) and 1.26 (3×) and 1.25 (3×) and 1.22 (2×) and 1.37 (2×) and 1.40 and 1.48 and 1.20 (2×) and 1.16 and 1.32 and 1.35 and 1.21 (2×) and 1.12 and 1.28 and 1.17 and 1.24
- Total striatal binding ratio, Ratio (3-6) (2 heads): 1.29 and 1.27 (3×) and 1.35 and 1.37 and 1.31 and 1.32 (4×) and 1.30 and 1.36 and 1.43 and 1.47 and 1.60 and 1.25 and 1.21 and 1.19 and 1.38 (2×) and 1.40 and 1.24 (2×) and 1.12 and 1.26 and 1.33 (2×) and 1.20 and 1.45
- Total striatal binding ratio, Ratio (3-6) (3 heads): 1.32 and 1.30 (2×) and 1.39 and 1.41 and 1.33 and 1.36 (2×) and 1.35 (2×) and 1.38 and 1.45 and 1.56 and 1.70 and 1.37 (2×) and 1.28 and 1.23 and 1.20 and 1.42 (2×) and 1.44 and 1.26 and 1.15 and 1.29 and 1.31 and 1.22 and 1.50 and 1.40 and 1.27
- Peak Striatal:Occipital Ratio (peak SBR) (individual PD subjects, 1 head reconstruction): 1.29 (2×) and 1.24 (2×) and 1.22 and 1.35 and 1.41 (2×) and 1.52 and 1.43 and 1.26 (2×) and 1.32 and 1.33 (2×)
- Peak Striatal:Occipital Ratio (peak SBR) (individual PD subjects, 2 head reconstruction): 1.28 (2×) and 1.27 (2×) and 1.25 and 1.41 and 1.46 and 1.66 and 1.53 and 1.26 and 1.36 and 1.32 and 1.43 and 1.37 and 1.39
- Peak Striatal:Occipital Ratio (peak SBR) (individual PD subjects, 3 head reconstruction): 1.30 (2×) and 1.25 and 1.44 (2×) and 1.74 and 1.60 and 1.33 and 1.34 and 1.45 (2×) and 1.35 and 1.39 and 1.28 and 1.43
- Peak Striatal:Occipital Ratio (peak SBR) (individual healthy controls, 1 head reconstruction): 1.49 and 1.57 and 1.79 and 1.47 and 1.56 and 1.63 and 1.64 and 1.86 and 1.52 and 1.50 and 1.66 and 1.51
- Peak Striatal:Occipital Ratio (peak SBR) (individual healthy controls, 2 head reconstruction): 1.66 and 1.67 and 1.95 and 1.62 and 1.68 and 1.79 and 1.77 and 2.10 and 1.59 and 1.55 and 1.84 and 1.61
- Peak Striatal:Occipital Ratio (peak SBR) (individual healthy controls, 3 head reconstruction): 1.81 (2×) and 1.79 and 2.06 and 1.69 and 1.90 and 1.93 and 2.30 and 1.71 and 1.68 and 1.86 and 1.77
- mean SBR (peak Striatal:Occipital Ratio) (mean of 12 healthy controls, 1 head): 1.60
- mean SBR (peak Striatal:Occipital Ratio) (mean of 12 healthy controls, 2 head): 1.74
- mean SBR (peak Striatal:Occipital Ratio) (mean of 12 healthy controls, 3 head): 1.86
- mean SBR (peak Striatal:Occipital Ratio) (mean of 15 PD subjects, 1 head): 1.33
- mean SBR (peak Striatal:Occipital Ratio) (mean of 15 PD subjects, 2 head): 1.37
- mean SBR (peak Striatal:Occipital Ratio) (mean of 15 PD subjects, 3 head): 1.41
- elimination from brain (most subjects, striatal and occipital regions): rapid elimination
- time of peak SBR post injection (one and two head scenarios): ≥ 15 min
